Consider 1 molecule from US10857128B2, “Methods and compositions for treating inflammatory diseases” (Helmholtz Zentrum München Deutsches Forschungszentrum für …, priority 2017, dated 2020).

Each structure is given as a SMILES string. Read-outs that look alike come from different tables or passages of the source.

One data set relates to human LPS treated DCs. Kind of data set: Cytokine secretion of human DCs (multiplex assay). The format is cell-based. To be noted: for IFN-g / IL-5 / IL-10 / IL-12: 200 μl supernatant or amino acid 10 μM, 14 h. The method, then:
(§1) Peripheral blood mononuclear cells (PBMC) were isolated from heparinized whole blood by density gradient centrifugation (2000 rpm, 22° C., 20 min) (Biocoll, Biochrom AG, Berlin, Germany). […] Purity and viability of DCs was assessed by flow cytometry (FIG. 9A-C).
[…] For probiotic supernatants, blank CDM1 was used as medium control. […] IL-5, IFN-gamma, IL-12, and IL-10, were quantified by a multiplex assay (Milliplex Human Cytokine Immunoassay, Millipore GMbH Schalbach, Germany) as described by the manufacturer.

Data set [1] can be described thus: Oral supplementation of mice with D-tryptophan in drinking water: serum levels and tolerability. The format is in vivo, Balb/c mice. To be noted: 14 days. The method, then: Enantiomeric separation of D-Tryptophan in murine sera. The investigator (C.M.) was blinded to the murine intervention groups. Due to the abundance of interfering proteins a protein precipitation was done. For this purpose the sera were thawed on ice and 20 μL of each sample were vigorously shaken with 80 μL 4° C. methanol (Chromasolve, Fluka, St. Louis, USA) and centrifuged (15,000×g at 4° C. for 15 min). The supernatants were taken, evaporated and resolved in water before injection. The derivation was performed as described for bacterial supernatants with some modifications as recently published (Müller et al., J Chromatogr A. 2014 Jan. 10; 1324:109-14). For quantification human serum was spiked with different concentrations (0.005-0.15 μg/mL) of D-Tryptophan and randomly analyzed.
Animals and oral supplementation with D-tryptophan. […]

For data set [2], the system named is costimulatory molecules of LPS-stimulated human dendritic cells. As to the kind of experiment: Costimulatory molecules on LPS-stimulated human monocyte-derived dendritic cells (flow cytometry). The format is cell-based. To be noted: Dendritic cell, 24 h, LPS 0.1 μg/ml, D-amino acid 10 μM, mean ± SD of three experiments, relative to LPS-induced expression. The method, then: Generation of human monocyte-derived dendritic cells. Peripheral venous blood was obtained from healthy volunteers aged between 20 and 50 years after informed consent. Individuals with allergic disease, acute infection or taking any medication 20 days prior to blood sampling or any history of smoking (personal interview) were excluded prior to blood sampling. All experiments were conducted according to the principles expressed in the Declaration of Helsinki.
as §1
Costimulatory molecules on human DCs. The following primary monoclonal antibodies were used: CD83 fluorescein isothiocyanate (FITC); CD1a phycoerythrin (PE); CD86-FITC; CD80-PE; CD14 allophycocyanine (APC); CD40-APC; CD3-peridinin chlorophyll protein (PerCP); HLA-DR-PerCP; mouse immunoglobulins G1 (IgG1) mouse immunoglobulins G1 (IgG1) κ were used as isotype controls using the corresponding fluorochromes (all purchased from BD Biosciences, Heidelberg, Germany). To account for donor dependent variability of DC surface markers, all data were normalized to the expression induced by LPS which was set to 100% after subtraction of background values (FACS Canto, FACS DIVA software, Version 5.0.3, BD Biosciences, Heidelberg, Germany). Murine DC subsets and CD4^+ T cells. Single cell suspensions of splenocytes were obtained by filtering spleens through a 70 μm strainer. Samples were stained with CD3-PB (1:200, Biolegend, San Diego, USA), CD4-APC-H7 (BD, 1:400), CD11c-APC-Cy7 (1:100), Mhc-II-Percp-Cy5 (1:100), CD11b-FITC (1:100), CD80-AF647, CD40-APC (1:100). For intracellular cytokines, total spleen cells were stimulated with anti-CD3 (4 μg/mL, BD Bioscience, Heidelberg, Germany) and anti-CD28 (30 ng/mL, BD Bioscience, Heidelberg, Germany) for 16 h. 1×10^6 of total lung cells were stimulated for 16 h with MACSiBead particles coated with anti-CD3 and anti-CD28 using the T cell activation/expansion kit (Miltenyi Biotec, Bergisch Gladbach, Germany) in TexMACS medium (Miltenyi Biotec) according to the manufactures recommendations. Prior to staining, cells were treated with monensin (0.7 μL/mL, BD Golgi Stop, BD Bioscience, Heidelberg, Germany) for 6 h at 37° C. and intracellularly stained for II-4-PE (1:100, eBioscience, Vienna, Austria according to the manufacturer's protocols. Intracellular staining for Foxp3 was performed by using the Foxp3/Transcription Factor Staining buffer set (eBiosciences, Vienna, Austria) according to the manufacturer's recommendations.
Bioassays for screening for immune modulatory activity in probiotic supernatants. Two biological assays based on down-modulation of costimulatory molecules on human DCs, and of CCL17-secretion by a human Hodgkin lymphoma T cell line (KM-H2) were set up. Human immature DCs were matured with 0.1 μg/mL lipopolysaccharide (LPS) from E. coli (Sigma-Aldrich, St. Louis, USA) in the presence or absence of 200 μL bacteria free supernatants for 24 h followed by flow cytometric analysis of costimulatory molecules.
(In general: In flow cytometry, cells or beads pass a laser one at a time.)

Take `N[C@H](Cc1c[nH]c2ccccc12)C(=O)O` [D-tryptophan]: in the data set with human LPS treated DCs (highly enriched DCs), the “IL-10 in DC cultures” value is given as “strongly induced”; the “LPS-induced IFN-g, IL-12 and IL-5 in DC cultures” value is reported as “lowered”. Moreover, in the data set with human LPS treated DCs (with LPS 0.1 μg/ml), the “Ratio IL-5/IFN-g” value stood at 0.018, the “Ratio IL-10/IL-12” value is listed as 0.232, the IFN-g was found to be 1129.50 pg/mL and the IL-5 worked out at 20.60 pg/mL. In the data set on human LPS treated DCs (with LPS 0.1 μg/ml), this molecule registered an IL-10 of 202.50 pg/mL and an IL-12 of 871.90 pg/mL. Besides, in the data set on human LPS treated DCs (without LPS), the “Ratio IL-5/IFN-g” value is 0.470, the “Ratio IL-10/IL-12” value is reported as 0.690, the IFN-g amounted to 21.90 pg/mL and the IL-5 was found to be 10.30 pg/mL. In the data set with human LPS treated DCs (without LPS), the IL-10 was 56.90 pg/mL and the IL-12 came to 82.50 pg/mL. Further, the “changes in behavior or body weight” value in data set [1] (1.8 or 18 mg/dL in drinking water, compared to controls) is on record as “No changes”. Further, the D-tryptophan serum levels result in data set [1] (oral 0.9 mg/day in drinking water) is “increased D-tryptophan serum levels significantly”. Also, the activity at 10 µM in data set [2] (read-out: Percentage of CD40 expressing mature DCs) amounted to 15.2 ± 6.5%. Besides, the activity at 10 µM in data set [2] (read-out: Percentage of CD80 expressing mature DCs) is 12.1 ± 1.7%. Also, in data set [2] (read-out: Percentage of CD83 expressing mature DCs), the activity at 10 µM was 7.6 ± 3.3%. Moreover, the activity at 10 µM in data set [2] (read-out: Percentage of CD86 expressing mature DCs) stood at 24.1 ± 2.7%. Besides, the activity at 10 µM in data set [2] (read-out: Percentage of HLA-DR expressing mature DCs) came out at 88.9 ± 3%.
